Data on twelve compounds can be found in patent US11149031B2, “Substituted N-(3-fluoropropyl)-pyrrolidine compounds, processes for their preparation and therapeutic uses thereof” (SANOFI, priority 2016, dated 2021).

Where two headings read alike, the source gives them in different places.

The subject of experiment [1] is MCF7 cells expressing mutant estrogen receptor Asp 538 Gly. Description: Test B: cell proliferation/viability assay (CellTiter-Glo) on MCF7 Asp 538 Gly mutant. To be noted: Homo sapiens, MCF7, 168 h, MCF7 cells expressing ER Asp 538 Gly mutant, 7 days of compound exposure, read-out: proliferation MCF7 D538G IC50. Type of experiment: cell-based. From the text:
(§1) Test B: Cell Proliferation/Viability Assay on MCF7 (Breast Tumor Cells) WT and Mutants Cell Lines
(§2) Test B involves measuring the in vitro proliferation activity of the compounds of the invention by analyzing the viability of the tumor cells.
(§3) The measurements of the viability were made using a breast cancer cell viability assay as described hereunder.
(§4) MCF7 cells expressing (and dependent) on mutants estrogen receptor Tyr 537 Ser or Asp 538 Gly were generated by transfection of MCF7 parental cells (ATCC) with expression vectors coding for different mutants of estrogen receptor Tyr 537 Ser or Asp 538 Gly. The cells were first selected by antibiotic (related to vector expression) and then selected for their growth dependence on estrogen receptor based on their ability to grow in vitro in absence of estradiol (parental cell line die in absence of estradiol).
(§5) MCF7 cells (ATCC) or MCF7 cells expressing (and dependent) on mutants estrogen receptor Tyr 537 Ser or Asp 538 Gly were seeded in 384 wells microplate at concentration of >999 cells/30 μL per well in red phenol free MEM medium containing 5% charcoal dextran striped FBS. The following day, 9 points serial 1:5 dilution of each compound were added to the cells in 20 μL at final concentrations ranging from 3-0.000001 μM. After 7 days of compound exposure, 50 μL of CellTiter-Glo (promega) was added to the cells and relative luminescence arbitrary units (RLUs) were determined in luminescence plate reader (Envision device). CellTiter-Glo was added to 50 μL medium without cells to determine the background signal.
(§6) The percent of viability of each sample was determined as follows: (RLU sample−RLU background/RLU untreated−RLU background)*100=% viability.
(Cellular ATP, detected with luciferase, serves as a proxy for viable cell number.)

A further experiment has as its target ERα in MCF7 cells (Homo sapiens (Human), UniProt P03372). Description: Test C: estrogen receptor degradation activity, ERα in cell western assay in MCF7 cells. Type of experiment: cell-based. Particulars: for DC50: 4 hours post compound addition, ERα in cell western, read-out: Degradation IC50; for % Degradation at 3 μM: 4 hours, relative to fulvestrant. The method, boiled down:
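In-cell western: ERα level (green) against DNA stain Syto-64 (red) by integrated intensity. MCF7 cells in hormone-depleted medium exposed 4 h to compound at 3-0.000018 μM final (1:5 series); fulvestrant 0.1 μM as positive control.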

In experiment [2] the target is His6-ERα298-554 D538G mutant (ERα ligand-binding domain) (Homo sapiens (Human), UniProt P03372, D538G). Put plainly: Test A: biochemical antagonist activity, LanthaScreen TR-FRET ERα coactivator assay, D538G mutant. Particulars: read-out: Antagonism D538G IC50. The method, boiled down: (§7)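 TR-FRET 520:495 nm emission ratio read after overnight room-temperature incubation; IC50 derived by 4-parameter logistic fit. Mix: 0.5 nM receptor LBD, 0.5 nM Tb-His6 antibody, 250 nM PGC1a peptide, 3 nM or 10 nM estradiol, pH 7.4 phosphate buffer.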
Background: Time-resolved FRET reads energy transfer from a long-lived donor to a nearby acceptor.

The target in experiment [3] is His6-ERα298-554 Y537S mutant (ERα ligand-binding domain) (Homo sapiens (Human), UniProt P03372, Y537S). Put plainly: Test A: biochemical antagonist activity, LanthaScreen TR-FRET ERα coactivator assay, Y537S mutant. To be noted: read-out: Antagonism Y537S IC50. The method, boiled down: as §7
Experiment [4] has as its system MCF7 cells (breast tumor cells) WT. Put plainly: Test B: cell proliferation/viability assay (CellTiter-Glo) on MCF7 WT. Type of experiment: cell-based. Particulars: Homo sapiens, MCF7, 168 h, 7 days of compound exposure. As to the method: as §1, §2
The measurements of the viability were made using a breast cancer cell viability assay as described hereunder. […]
as §5, §6

Experiment [5] has as its target His6-ERα298-554 WT (ERα ligand-binding domain) (Homo sapiens (Human), UniProt P03372). Description: Test A: biochemical antagonist activity, LanthaScreen TR-FRET ERα coactivator assay, WT. To be noted: read-out: Antagonism WT IC50. An outline of the steps:
as §7

For experiment [6], the system named is MCF7 cells expressing mutant estrogen receptor Tyr 537 Ser. Put plainly: Test B: cell proliferation/viability assay (CellTiter-Glo) on MCF7 Tyr 537 Ser mutant. Particulars: Homo sapiens, MCF7, 168 h, MCF7 cells expressing ER Tyr 537 Ser mutant, 7 days of compound exposure, read-out: proliferation MCF7 Y537S IC50. Type of experiment: cell-based.
Text: as §1, §2, §3, §4, §5, §6

[7] abbreviates: asterisk (*): protocol using 10 nM estradiol.

Sequence of His6-ERα298-554 D538G mutant (ERα ligand-binding domain) (P03372 298-554 D538G): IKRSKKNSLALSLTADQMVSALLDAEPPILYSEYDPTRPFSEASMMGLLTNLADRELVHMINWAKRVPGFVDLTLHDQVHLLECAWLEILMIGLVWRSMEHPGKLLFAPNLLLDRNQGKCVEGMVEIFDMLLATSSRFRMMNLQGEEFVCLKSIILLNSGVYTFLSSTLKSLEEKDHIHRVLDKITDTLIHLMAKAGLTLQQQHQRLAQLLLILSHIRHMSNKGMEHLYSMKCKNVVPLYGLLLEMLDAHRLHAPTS
Sequence of ERα in MCF7 cells (P03372 whole entry): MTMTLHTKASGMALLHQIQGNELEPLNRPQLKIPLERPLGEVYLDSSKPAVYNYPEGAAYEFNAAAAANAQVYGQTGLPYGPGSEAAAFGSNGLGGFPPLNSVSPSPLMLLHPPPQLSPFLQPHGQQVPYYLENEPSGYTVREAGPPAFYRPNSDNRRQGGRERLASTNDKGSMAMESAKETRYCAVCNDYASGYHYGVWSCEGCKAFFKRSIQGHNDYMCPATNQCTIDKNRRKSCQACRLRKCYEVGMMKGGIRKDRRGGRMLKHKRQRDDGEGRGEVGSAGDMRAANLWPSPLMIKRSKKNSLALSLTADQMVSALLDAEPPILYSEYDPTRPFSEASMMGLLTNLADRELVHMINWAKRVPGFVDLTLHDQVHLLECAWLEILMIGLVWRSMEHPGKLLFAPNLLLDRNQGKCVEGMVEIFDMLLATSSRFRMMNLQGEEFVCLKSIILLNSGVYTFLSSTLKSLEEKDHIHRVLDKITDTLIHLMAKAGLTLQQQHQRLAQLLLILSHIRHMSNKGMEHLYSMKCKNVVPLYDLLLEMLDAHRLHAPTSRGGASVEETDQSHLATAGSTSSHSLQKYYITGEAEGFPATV
Sequence of His6-ERα298-554 Y537S mutant (ERα ligand-binding domain) (P03372 298-554 Y537S): as the sequence (P03372 298-554 D538G) above, with Y240S, G241D counted along it
Sequence of His6-ERα298-554 WT (ERα ligand-binding domain) (P03372 298-554): as the sequence (P03372 298-554 D538G) above, with G241D counted along it

Turning to `Oc1ccc2c(c1)SCC(c1ccc(Cl)cc1F)=C2c1ccc(O[C@H]2CCN(CCCF)C2)cc1` [Example 18, 3-(4-chloro-2-fluoro-phenyl)-4-[4-[(3S)-1-(3-fluoropropyl)pyrrolidin-3-yl]oxyphenyl]-2H-thiochromen-7-ol], the IC50 in experiment [1] turned out to be 1 nM; in experiment [2] (protocol with 3 nM estradiol), 39 nM; in experiment [3] (protocol with 3 nM estradiol), 15 nM; in experiment [4], 0.5 nM; in experiment [5] (protocol with 3 nM estradiol), 9 nM; in experiment [6], 7 nM. The DC50 on ERα in MCF7 cells came to 0.6 nM. For the same compound, on ERα in MCF7 cells, the “% Degradation at 3 μM” value amounted to 90%.
On to `COc1ccc(C2=C(c3ccc(O[C@H]4CCN(CCCF)C4)cc3)c3ccc(O)cc3SC2)cc1F` [Example 23, 3-(3-fluoro-4-methoxy-phenyl)-4-[4-[(3S)-1-(3-fluoropropyl)pyrrolidin-3-yl]oxyphenyl]-2H-thiochromen-7-ol], for which the IC50 in experiment [1] is 14 nM; in experiment [2] (setting [7]) it was 803 nM; in experiment [3] (setting [7]), 678 nM; in experiment [4], 7 nM; in experiment [5] (setting [7]) it was 50 nM; in experiment [6] it was over 999 nM. Further, the DC50 at ERα in MCF7 cells was 0.3 nM. Besides, the “% Degradation at 3 μM” value on ERα in MCF7 cells is given as 93%.
As for `COc1ccc(C2=C(c3ccc(O[C@H]4CCN(CCCF)C4)cc3)c3ccc(O)cc3SC2)c(F)c1` [Example 24, 3-(2-fluoro-4-methoxy-phenyl)-4-[4-[(3S)-1-(3-fluoropropyl)pyrrolidin-3-yl]oxyphenyl]-2H-thiochromen-7-ol], the IC50 was determined as 0.9 nM in experiment [1]; 80 nM in experiment [2] (setting [7]); 44 nM in experiment [3] (setting [7]); 0.3 nM in experiment [4]; 5 nM in experiment [5] (setting [7]); 6 nM in experiment [6]. On ERα in MCF7 cells, the DC50 was found to be 0.2 nM. Further, the “% Degradation at 3 μM” value on ERα in MCF7 cells came out at 91%.
For the compound `Cc1ccc(C2=C(c3ccc(O[C@H]4CCN(CCCF)C4)cc3)c3ccc(C(=O)O)cc3SC2)c(F)c1` [Example 25, 3-(2-fluoro-4-methyl-phenyl)-4-[4-[(3S)-1-(3-fluoropropyl)pyrrolidin-3-yl]oxyphenyl]-2H-thiochromene-7-carboxylic acid], the IC50 in experiment [1] was 31 nM; in experiment [2] (setting [7]), over 4000 nM; in experiment [3] (setting [7]), over 4000 nM; in experiment [4], 16 nM; in experiment [5] (setting [7]), 1420 nM; in experiment [6], 160 nM. Further, on ERα in MCF7 cells, the DC50 came to 19 nM. The “% Degradation at 3 μM” value at ERα in MCF7 cells is given as 93%.
As for `CCOc1ccc(C2=C(c3ccc(O[C@H]4CCN(CCCF)C4)cc3)c3ccc(O)cc3SC2)c(F)c1` [Example 26, 3-(4-ethoxy-2-fluoro-phenyl)-4-[4-[(3S)-1-(3-fluoropropyl)pyrrolidin-3-yl]oxyphenyl]-2H-thiochromen-7-ol], the IC50 in experiment [1] is 2 nM; in experiment [2] (protocol with 3 nM estradiol), 67 nM; in experiment [3] (protocol with 3 nM estradiol), 39 nM; in experiment [4], 0.9 nM; in experiment [5] (protocol with 3 nM estradiol), 3 nM; in experiment [6], 10 nM. Moreover, the DC50 on ERα in MCF7 cells came out at 0.8 nM. In addition, on ERα in MCF7 cells, the “% Degradation at 3 μM” value is reported as 90%.
With `CCOc1ccc(C2=C(c3ccc(O[C@H]4CCN(CCCF)C4)cc3)c3ccc(O)cc3SC2)c(F)n1` [Example 27, 3-(6-ethoxy-2-fluoro-3-pyridyl)-4-[4-[(3S)-1-(3-fluoropropyl)pyrrolidin-3-yl]oxyphenyl]-2H-thiochromen-7-ol], the IC50 in experiment [1] was 2 nM; in experiment [2] (setting [7]) it was 38 nM; in experiment [3] (setting [7]) it was 21 nM; in experiment [4] it was 0.4 nM; in experiment [5] (setting [7]), 2 nM; in experiment [6], 6 nM. Further, the DC50 on ERα in MCF7 cells worked out at 0.6 nM. Also, at ERα in MCF7 cells, the “% Degradation at 3 μM” value was found to be 94%.
Turning to `Oc1ccc2c(c1)SCC(c1ccc3c(c1)OCCO3)=C2c1ccc(O[C@H]2CCN(CCCF)C2)cc1` [Example 28, 3-(2,3-dihydro-1,4-benzodioxin-6-yl)-4-[4-[(3S)-1-(3-fluoropropyl)pyrrolidin-3-yl]oxyphenyl]-2H-thiochromen-7-ol], the IC50 in experiment [1] came out at 2 nM; in experiment [2] (setting [7]) it was 68 nM; in experiment [3] (setting [7]), 41 nM; in experiment [4], 0.7 nM; in experiment [5] (setting [7]), 4 nM; in experiment [6], 11 nM. Moreover, the DC50 at ERα in MCF7 cells was 0.3 nM. Also, the “% Degradation at 3 μM” value on ERα in MCF7 cells came to 80%.
Regarding `CC1(C)Cc2cc(C3=C(c4ccc(O[C@H]5CCN(CCCF)C5)cc4)c4ccc(O)cc4SC3)ccc2N1` [Example 29, 3-(2,2-dimethylindolin-5-yl)-4-[4-[(3S)-1-(3-fluoropropyl)pyrrolidin-3-yl]oxyphenyl]-2H-thiochromen-7-ol], the IC50 in experiment [1] was determined as 0.9 nM; in experiment [2] (setting [7]), 240 nM; in experiment [3] (setting [7]) it was 130 nM; in experiment [4], 0.4 nM; in experiment [5] (setting [7]), 14 nM; in experiment [6], 6 nM. In addition, the DC50 on ERα in MCF7 cells was determined as 0.2 nM. Also, the “% Degradation at 3 μM” value on ERα in MCF7 cells amounted to 92%.
On to `Oc1ccc2c(c1)SCC(c1ccc(OC(F)F)c(F)c1)=C2c1ccc(O[C@H]2CCN(CCCF)C2)cc1` [Example 30, 3-[4-(difluoromethoxy)-3-fluoro-phenyl]-4-[4-[(3S)-1-(3-fluoropropyl)pyrrolidin-3-yl]oxyphenyl]-2H-thiochromen-7-ol], for which the IC50 in experiment [1] is 2 nM; in experiment [2] (protocol with 3 nM estradiol), 694 nM; in experiment [3] (protocol with 3 nM estradiol), 415 nM; in experiment [4], 1 nM; in experiment [5] (protocol with 3 nM estradiol), 34 nM; in experiment [6], 16 nM. In addition, the DC50 at ERα in MCF7 cells came to 1 nM. Moreover, the “% Degradation at 3 μM” value on ERα in MCF7 cells is listed as 91%.
With `Oc1ccc2c(c1)SCC(c1ccc3c(c1)OC(F)(F)O3)=C2c1ccc(O[C@H]2CCN(CCCF)C2)cc1` [Example 31, 3-(2,2-difluoro-1,3-benzodioxol-5-yl)-4-[4-[(3S)-1-(3-fluoropropyl)pyrrolidin-3-yl]oxyphenyl]-2H-thiochromen-7-ol], the IC50 is 1 nM in experiment [1]; 101 nM in experiment [2] (protocol with 3 nM estradiol); 59 nM in experiment [3] (protocol with 3 nM estradiol); 0.4 nM in experiment [4]; 5 nM in experiment [5] (protocol with 3 nM estradiol); 6 nM in experiment [6]. In addition, on ERα in MCF7 cells, the DC50 is 0.7 nM. Also, the “% Degradation at 3 μM” value at ERα in MCF7 cells is recorded as 86%.
As for `CC1(C)Cc2cc(C3=C(c4ccc(O[C@H]5CCN(CCCF)C5)cc4)c4ccc(O)cc4SC3)ccc2O1` [Example 32, 3-(2,2-dimethyl-3H-benzofuran-5-yl)-4-[4-[(3S)-1-(3-fluoropropyl)pyrrolidin-3-yl]oxyphenyl]-2H-thiochromen-7-ol], the IC50 in experiment [1] worked out at 1 nM; in experiment [2] (setting [7]), 314 nM; in experiment [3] (setting [7]) it was 168 nM; in experiment [4], 0.4 nM; in experiment [5] (setting [7]) it was 19 nM; in experiment [6] it was 6 nM. The DC50 at ERα in MCF7 cells amounted to 0.8 nM. Also, the “% Degradation at 3 μM” value at ERα in MCF7 cells is given as 87%.
In the case of `CC(C)(O)c1ccc(C2=C(c3ccc(O[C@H]4CCN(CCCF)C4)cc3)c3ccc(O)cc3SC2)c(F)c1` [Example 33, 3-[2-fluoro-4-(1-hydroxy-1-methyl-ethyl)phenyl]-4-[4-[(3S)-1-(3-fluoropropyl)pyrrolidin-3-yl]oxyphenyl]-2H-thiochromen-7-ol], the IC50 in experiment [1] was determined as 2 nM; in experiment [2] (setting [7]) it was 1690 nM; in experiment [3] (setting [7]), 596 nM; in experiment [4] it was 4 nM; in experiment [5] (setting [7]), 66 nM; in experiment [6] it was 22 nM. Also, at ERα in MCF7 cells, the DC50 worked out at 1 nM. The “% Degradation at 3 μM” value on ERα in MCF7 cells is 84%.
